# Reference: US10138250B2, “Salt of pyrrolo[2,3-D]pyrimidine compound and novel polymorph of salt” (Crystal Pharmatech Co., Ltd., priority 2014, dated 2018)
# Entries after “also recorded” stand apart in the source; their conditions may differ. Like-named read-outs stand apart in the source and are kept apart here.
# Experiments:
# [1] = Dynamic Vapor Sorption (DVS) hygroscopicity test with XRPD before and after; assay type: physicochemical; details: for solid form change after hygroscopicity test (XRPD): XRPD before and after DVS 0-95% RH cycle; for Change after DVS: XRPD before and after DVS
# Method: Dynamic Vapor Sorption (DVS) was measured via a SMS (Surface Measurement Systems) DVS Intrinsic. Typical Parameters for DVS test are listed below.
# Gas and flow rate: N2, 200 mL/min
# RH range: 0% RH to 95% RH
# About 10.0 mg of hemi-succinate Form A was analyzed by DVS. The solid form was tested by XRPD before and after DVS.
# About hygroscopicity characterization description and definition of hygroscopicity (Chinese Pharmacopoeia 2010 edition appendix XIXJ Drug hygroscopic test guidelines, test at 25° C.+/−1° C., 80% Relative Humidity)
# About 10 mg of mono-succinate Form I of the present invention and non-hydrate form in patent CN103201275A were analyzed by DVS. The solid was tested by XRPD before and after hygroscopicity test.
# The solid was tested by XRPD before and after hygroscopicity test.
# [2] = Conversion of mono-succinate non-hydrate form to Form I by stirring in solvents at different temperatures; assay type: physicochemical; details: cell continues 'Form I'
# Method: About 10 mg of the non-hydrate form in patent CN103201275A as starting form was added in different solvents or mixed solvents (v/v), then stirred at 5-50° C. for about 48 hours. Finally, the starting form converted to Form I. Solvents and temperature used in this example is in the following in table 6.
# [3] = Conversion of mono-succinate non-hydrate form to hemi-succinate Form A by stirring in solvents; assay type: physicochemical; details: cell continues 'Form A'
# Method: About 10 mg of the non-hydrate form in patent CN103201275A as starting form was added in different solvents or mixed solvents (v/v), then stirred at 5˜50° C. for about 48 hours.
# [4] = data in patent CN103201275A, cited from earlier work
# [5] = Storage stability of crystalline salt forms (XRPD, HPLC purity); assay type: physicochemical; details: 30 days; for Solid Form after storage: XRPD
# Method: Two samples prepared by example 9, example 11 and example 13 were stored for 30 days under 25° C./60% RH and 40° C./75% RH.
Water absorption at 25° C./95% RH ([1]; DVS) [%],HPLC Purity after storage ([5]; 25° C./60% RH) [%],Solid Form after storage ([5]; 25° C./60% RH),HPLC Purity after storage ([5]; 40° C./75% RH) [%],Solid Form after storage ([5]; 40° C./75% RH),Change after DVS [1],SMILES,other results
18.3,,,,,,CN(C)C(=O)c1cc2cnc(Nc3ccc(N4CCNCC4)cn3)nc2n1C1CCCC1.O=C(O)CCC(=O)O,"water adsorbed at 25° C./95% RH ([1]; DVS): 18.3%; solid form change after hygroscopicity test (XRPD) [1]: changed; Change after DVS ([1]; listed as non-hydrate form in patent CN103201275A): changed; Final Form ([2]; 5° C., Ethanol:n-heptane = 4:1, about 48 hours): mono-succinate; Final Form ([2]; 50° C., Acetonitrile:water = 20:1, about 48 hours): mono-succinate; Final Form ([2]; 50° C., THF:Methanol = 20:1, about 48 hours): mono-succinate; Final Form ([2]; RT, Ethanol:n-heptane = 4:1, about 48 hours): mono-succinate; Final Form ([3]; Acetone:water = 20:1, stirred at 5˜50° C. about 48 hours): hemi-succinate; Final Form ([3]; Ethanol:water = 20:1, stirred at 5˜50° C. about 48 hours): hemi-succinate; Final Form ([3]; Ethyl acetate, stirred at 5˜50° C. about 48 hours): hemi-succinate; Final Form ([3]; Tetrahydrofuran:water = 20:1, stirred at 5˜50° C. about 48 hours): hemi-succinate; share of non-hydrate form converted to hydrate form ([4]; 25° C./80% RH): 0.52%; share of non-hydrate form converted to hydrate form ([4]; 25° C./90% RH): 7.35%; water adsorbed at 25° C./90% RH ([4]; 25° C./90% RH): 2.0%"
0.7,99.1,No Change,98.9,No Change,did not change; also recorded: No change,CN(C)C(=O)c1cc2cnc(Nc3ccc(N4CCNCC4)cn3)nc2n1C1CCCC1.O=C(O)CCCCC(=O)O [adipate Form A],
1.2,99.7,No Change,99.6,No Change,did not change; also recorded: No change,CN(C)C(=O)c1cc2cnc(Nc3ccc(N4CCNCC4)cn3)nc2n1C1CCCC1.O=C(O)CO [glycollate Form A],
,,,,,,CN(C)C(=O)c1cc2cnc(Nc3ccc(N4CCNCC4)cn3)nc2n1C1CCCC1.CN(C)C(=O)c1cc2cnc(Nc3ccc(N4CCNCC4)cn3)nc2n1C1CCCC1.O=C(O)CCC(=O)O [hemi-succinate Form A],"weight gain at 80% RH ([1]; DVS, 25° C., 80% RH): 3.5%; hygroscopicity class ([1]; DVS, 80% RH): slightly hygroscopic (increase in mass is less than 2 percent and equal to or greater than 0.2 percent)"
3.4,99.3,No Change,99.3,No Change,did not change; also recorded: No change,CN(C)C(=O)c1cc2cnc(Nc3ccc(N4CCNCC4)cn3)nc2n1C1CCCC1.O=C(O)/C=C\C(=O)O [maleate Form A],
,,,,,,CN(C)C(=O)c1cc2cnc(Nc3ccc(N4CCNCC4)cn3)nc2n1C1CCCC1.O=C(O)CCC(=O)O [mono-succinate Form I],"water adsorbed at 25° C./90% RH ([1]; DVS, 25° C./90% RH): 1.7%; water adsorbed at 25° C./95% RH ([1]; DVS, listed as Form I): 4.0%; solid form change after hygroscopicity test (XRPD) ([1]; listed as Form I): did not change"
